Reference: patent publication US20070179113A1, “GM-CSF gene therapy for Crohn's disease using an improved regulated expression system” (Schering Aktiengesellachaft, priority 2005, published 2007)
Read-outs that look alike come from different tables or passages of the source.

Legend:
acute EAE in SJL mice = test: Mouse acute EAE model, mIFN-β protein; assay type: in vivo; details: IP twice daily; Mesopram 9 mg/kg, Prednisolone 2.5 mg/kg
[1] = test system: DSS-induced colitis in Balb/C mice; test: DSS-induced colitis model (5% DSS), validation, Disease Activity Index; assay type: in vivo; details: daily treatment, Mesopram/Metronidazole 50 mg/kg IP, mGM-CSF 5 μg non-pegylated, 5 or 10 μg pegylated
Protocol: Disease was induced in BalbC mice (N=10/group) by DSS (5%) applied daily in the drinking water. Mesopram, Metronidazole, or yeast expressed non-pegylated respectively pegylated mGM-CSF, was administered daily over a period of 8 days. Clinical scores (Daily Activity Index (DAI), a cumulative index of: weight loss, stool consistency, and rectal bleeding) were recorded daily.
(§1) Likewise, the DSS-induced mouse colitis model is useful for evaluating therapies for UC, IBD and CD. Disease is induced in mice by daily administration of 5% or 7% dextran sodium sulfate (DSS) in the drinking water over 8 days. Disease progression is monitored by the Daily Activity Index (DAI), a cumulative index of: weight loss, stool consistency, and rectal bleeding, which mimics the symptoms of UC, IBD and/or CD.
vi. DSS-induced colitis model. Prior to the gene delivery study the model was established and validated in Balb/C mice using non-pegylated and pegylated mGM-CSF protein. Disease was induced in Balb/C mice with 5% dextran sodium sulfate (DSS), provided in the drinking water every day over a period of 8 days. As the main endpoint, the Disease Activity Index (DAI, a cumulative index of: weight loss, stool consistency, and rectal bleeding) was recorded daily. […]

DSS-induced colitis = DSS-induced colitis model (7% DSS), proof of concept with pCMV-GMCSF plasmid DNA; assay type: in vivo, mice; details: plasmid single injection day 0 + EP, drugs and protein daily
Protocol: Two concentrations of pCMV-mGMCSF were tested side by side with a control plasmid (pNull) and two mGM-CSF protein formulations, non-pegylated and pegylated in the DSS-induced colitis model (N=10/group). A single plasmid DNA injection was administered at day 0 followed by electroporation. Murine GM-CSF protein was injected s.c. daily. Disease was induced with 7% DSS in the drinking water and clinical scores (DIA) were recorded daily.
as §1
vii. […] In this study the efficacy of pGMCSF plasmid DNA was evaluated side by side with Mesopram, Metronidazole, non-pegylated or pegylated mGM-CSF. The disease was induced using 7% DSS, administered daily in the drinking water. Mesopram, Metronidazole and mGM-CSF protein were administered daily, using the same dosing regimen as described for the validation study. pGMCSF plasmid DNA was injected at day 0 followed by electroporation. […]

[2] = mGM-CSF concentration in sera at day 8 of the DSS colitis study; details: final day of DSS study
Protocol: (§2) At day 8, the final day of the study, mGM-CSF concentrations were measured in sera of all mice.

[3] = mouse, in vivo
Protocol: as §2

GAL-4 DBS = details: read-out: Kd for binding; cited from earlier work

CCCOc1cc([C@]2(C)CNC(=O)O2)ccc1OC [Mesopram, reference compound]
clinical scores of EAE, positive controls (acute EAE in SJL mice): significantly decreased clinical scores | DAI score [1]: significantly reduced | disease scores (DAI) (DSS-induced colitis): efficacious | GM-CSF in sera at day 8 [2]: not detectable

C[C@]12C=CC(=O)C=C1CC[C@@H]1[C@@H]2[C@@H](O)C[C@@]2(C)[C@H]1CC[C@]2(O)C(=O)CO [Prednisolone]
clinical scores of EAE, positive controls (acute EAE in SJL mice): significantly decreased clinical scores

Cc1ncc([N+](=O)[O-])n1CCO [Metronidazole, reference compound]
DAI score [1]: significantly reduced | disease scores (DAI) (DSS-induced colitis): efficacious | GM-CSF in sera at day 8 [3]: not detectable

GAL-4 residues 1-100: N-terminal DNA binding fragment of yeast GAL-4 protein
Kd (GAL-4 DBS): 3 nM
